Data set [1] concerns HCV. The data set can be described thus: Time-of-addition assay. The class given is cell-based, hepatitis C virus. The settings on record: 10 nM bafilomycin A1, Huh7.5, HCV 300 IU/cell. The protocol:
Huh7.5 cells were infected with HCV (300 IU/cell) and incubated at 4 °C for 2 hrs, the cells were then washed with cold PBS and shifted to 37 °C (set as 0 hr time point) to initiate synchronous infection. […] Intracellular HCV RNA was detected after 72 hrs incubation. Inhibitory ratio was calculated as % relative to infectious control (0%). Fitted lines represent sigmoidal time-dependent curves.

In data set [2] the test system is HCV subgenomic replicon I 377-3′del.S in GS4.3 cells. The data set can be described thus: HCV subgenomic replicon replication in GS4.3 cells. The class given is cell-based, hepatitis C virus. To be noted: 72 hrs incubation, intracellular RNA; VX-950 at 1.0 μM. How it is done: Huh7.5 cells infected with HCV (45 IU/cell), or GS4.3 replicon cells were treated with different concentration of compounds. After 72 hrs, intracellular RNA was extracted with RNeasy Mini Kit; total intracellular proteins were extracted with PER. HCV RNA and proteins were analyzed with qRT-PCR and WB, respectively. Compound cytotoxicity in Huh7.5 cells or GS4.3 replicon cells were evaluated at 72 hrs with the tetrazolium (MTT, Amresco) assay.
Background: A replicon is a self-replicating genome or part of one, used to study replication in cells.

In another data set the test system is HCV particle. In words: Interaction between HCV and compounds (direct inactivation of HCV particles). The class given is cell-based, hepatitis C virus. The settings on record: 1 hr room temperature, Huh7.5, 72 hrs; for HCV inhibitory activity, Group 1 (treated HCV stock, no ultracentrifugation): SSO 10 μM or VX-950 0.5 μM, P < 0.01.
A further data set deals with T1, CD36 (Homo sapiens, UniProt P16671).
T1 construct: made in house; host or cells: 293T/17 cells
The data set can be described thus: BIAcore surface plasmon resonance binding to CD36-HA. The settings on record: immobilised CD36-HA; SSO 50, 100, 200, 500 μM. A general note: SPR reads the build-up and loss of mass on a sensor chip optically.

In a further data set the target is T2, SR-BI (Homo sapiens, UniProt Q8WTV0).
T2 construct: made in house; host or cells: 293T/17 cells
T2 sequence (Q8WTV0 1-509 isoform Q8WTV0-2): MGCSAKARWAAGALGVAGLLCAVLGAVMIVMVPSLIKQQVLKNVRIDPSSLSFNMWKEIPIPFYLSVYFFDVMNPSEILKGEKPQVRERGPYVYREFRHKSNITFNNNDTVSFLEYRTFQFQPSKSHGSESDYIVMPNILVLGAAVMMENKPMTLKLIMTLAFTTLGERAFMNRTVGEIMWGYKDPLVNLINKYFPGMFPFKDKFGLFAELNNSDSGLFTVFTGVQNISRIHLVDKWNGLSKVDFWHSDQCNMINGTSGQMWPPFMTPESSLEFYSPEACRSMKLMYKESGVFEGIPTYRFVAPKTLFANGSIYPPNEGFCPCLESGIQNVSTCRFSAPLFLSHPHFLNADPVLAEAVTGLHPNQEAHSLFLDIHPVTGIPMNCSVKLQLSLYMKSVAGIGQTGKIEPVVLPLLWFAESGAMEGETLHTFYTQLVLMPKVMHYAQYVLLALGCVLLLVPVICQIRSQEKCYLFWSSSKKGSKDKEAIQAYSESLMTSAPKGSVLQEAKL
The data set can be described thus: BIAcore surface plasmon resonance binding to SR-BI-HA. To be noted: immobilised SR-BI-HA. The protocol: The 293T/17 cells were transfected with CD36-HA or SR-BI-HA plasmid using HD transfection reagent. At 48 hrs post transfection, cells were harvested and protein CD36-HA or SR-BI-HA was purified with Pierce Anti-HA Agarose (Thermo Scientific) and then desalinated with Zeba Spin Desaling Columns (Thermo Scientific). The concentration of purified proteins was quantified with Pierce BCA Protein Assay Kit (Thermo Scientific). Then, surface plasmon resonance experiments were performed on a BIAcore biosensor system (BIAcore T100). In brief, the carboxymethylated surface of series S sensor chip CM5 (GE Healthcare Bio-Sciences) was first activated with a mixture of N-hydroxysuccinimide (NHS) and 1-ethyl-3-(3- dimethylaminopropyl) carbodiimide hydro-chloride (EDC) (BIAcore AB). Subsequently, 200 μL of purified CD36-HA or SR-BI-HA at a concentration of 80 μg/mL was injected into the flow cell (FC2) for immobilization on the sensor surface. […] Compound VX-950 was used as negative control. Data were evaluated using the software BIAcore T100 Evaluation (BIAcore AB).

Data set [3] has as its system HCV. In words: Anti-HCV activity in HCV-infected Huh7.5 cells (intracellular HCV RNA, qRT-PCR). The settings on record: for EC50: Hepatitis C virus, read-out: half maximal effective concentration (EC50) against HCV at RNA level; for selective index (SI): Huh7.5 cells, cytotoxicity by MTT assay vs anti-HCV EC50, 72 hrs. The class given is cell-based, hepatitis C virus.

The subject of the next data set is hepatitis B virus (HBV). The data set can be described thus: Activity against HBV in HepG2.2.15 cells. The class given is cell-based.
Data set [4] deals with herpes simplex virus type 1 (HSV-1). The data set can be described thus: Activity against HSV-1 in Vero cells. The class given is cell-based. To be noted: Human alphaherpesvirus 1; HSV-1, Vero.
A short description of data set [5]: Cytotoxicity in HepG2.2.15 cells. The class given is cell-based. The settings on record: human, HBV test.
Data set [6] in a line: Cytotoxicity in Vero cells. The class given is cell-based. To be noted: African green monkey.
Data set [7] in a line: Cytotoxicity in MDCK cells. The class given is cell-based. To be noted: dog, Influenza virus A/Tianjin-Jinnan/15/2009 test.
A further data set has as its system MDCK cells. In words: Cytotoxicity in MDCK cells. To be noted: Influenza virus BV/Shenzhen/155/2005 test. The class given is cell-based.
The test system of data set [8] is hepatitis B virus, influenza virus, herpes simplex virus and Coxsackie virus. In words: Activity of CD36 inhibitors against other viruses. The class given is cell-based. The settings on record: HepG2.2.15, MDCK and Vero cell cultures.
In data set [9] the test system is HCV. The data set can be described thus: Influence of CD36 level on the anti-HCV activity of SSO. The class given is cell-based, hepatitis C virus. The settings on record: 5 μM SSO for 2 hrs, HCV 150 IU/cell, RNA in 96 hrs, P < 0.01. How it is done:
Intracellular HCV RNA was analyzed with qRT-PCR in 96 hrs.

For data set [10], the system named is HCV. The data set can be described thus: Inhibition of HCV entry (treatment before, during or after infection). The class given is cell-based, hepatitis C virus. The settings on record: Huh7.5 cells. From the text:
Then, the cells were washed and cultured with fresh medium. Intracellular HCV RNA and proteins were detected in 72 hrs.

The subject of a further data set is KM mice. In words: Safety of SSO in vivo (single oral dose, KM mice). To be noted: single oral dose up to 1000 mg/kg, day 7. The text has this: KM mice at a weight of 21.0 ± 1.0 g were from Laboratory Animal Center, Academy of Military Medical Sciences, Beijing, China. The mice were randomly divided into four groups with 10 mice in each (♂ × 5, ♀ × 5). […] Body weight as well as survival was monitored. Seven days later, blood samples were taken for liver and kidney function examination.

Data set [11] has as its system Coxsackie B virus (CoxV-B1). In words: microbe, parasite or virus in culture. To be noted: Vero.
Data set [12] has as its system Influenza virus A/Tianjin-Jinnan/15/2009. The data set can be described thus: microbe, parasite or virus in culture. The settings on record: unidentified influenza virus, MDCK.
In data set [13] the test system is Influenza virus BV/Shenzhen/155/2005. The data set can be described thus: microbe, parasite or virus in culture. To be noted: unidentified influenza virus, MDCK.

Read-outs that look alike come from different tables or passages of the source. Bounds are passed on as bounds.

T1 sequence (P16671 whole entry): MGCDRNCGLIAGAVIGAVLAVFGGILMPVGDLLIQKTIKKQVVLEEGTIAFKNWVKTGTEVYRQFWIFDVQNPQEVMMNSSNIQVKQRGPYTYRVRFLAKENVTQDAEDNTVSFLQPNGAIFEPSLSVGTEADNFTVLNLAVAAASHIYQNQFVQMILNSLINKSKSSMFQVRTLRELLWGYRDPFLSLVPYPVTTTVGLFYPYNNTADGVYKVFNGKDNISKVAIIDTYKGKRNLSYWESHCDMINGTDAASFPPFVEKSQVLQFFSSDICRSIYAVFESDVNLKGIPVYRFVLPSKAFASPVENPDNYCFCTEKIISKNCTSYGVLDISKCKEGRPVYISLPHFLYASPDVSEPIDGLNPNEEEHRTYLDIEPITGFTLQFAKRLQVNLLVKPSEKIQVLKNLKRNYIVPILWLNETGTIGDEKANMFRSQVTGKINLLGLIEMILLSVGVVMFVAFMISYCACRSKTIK

For `CO/C1=C\C(C)=C\[C@@H](C)[C@@H](O)[C@@H](C)C/C(C)=C/C=C/[C@H](OC)[C@@H]([C@@H](C)[C@@H](O)[C@H](C)[C@@]2(O)C[C@@H](O)[C@H](C)[C@@H](C(C)C)O2)OC1=O` [bafilomycin A1], the “time HCV remained sensitive to the inhibitor after shift to 37 °C” value in the data set on HCV [1] was found to be 3 h.

Consider `CCC[C@H](NC(=O)[C@@H]1[C@H]2CCC[C@H]2CN1C(=O)[C@@H](NC(=O)[C@@H](NC(=O)c1cnccn1)C1CCCCC1)C(C)(C)C)C(=O)C(=O)NC1CC1` [VX-950, telaprevir], for which the “replication of the HCV replicon in GS4.3 cells” value in data set [2] is “strong inhibitory effect”. Also, the “HCV inhibitory activity, Group 1 (treated HCV stock, no ultracentrifugation)” value with HCV particle is “showed HCV inhibitory activity”. The “direct binding to CD36 (BIAcore)” value at CD36 was “did not bind onto CD36”. In addition, the “direct binding to SR-BI (BIAcore)” value on SR-BI is “no binding on SR-BI”.

Turning to `COc1cc(O)c(/C=N/NC(=O)c2cc3ccccc3s2)c(OC)c1` [AP5055], the EC50 in the data set with HCV [3] (Huh7.5 cells infected with HCV (45 IU/cell), 72 hrs, intracellular HCV RNA) came to 0.39 ± 0.16 µM. Also, the “selective index (SI)” value with HCV [3] was found to be 25.

One may read the CC50 as the concentration that lowers cell viability or growth by half. Lower therefore signals greater toxicity to the cells. In the case of `CCCCCCCC/C=C\CCCCCCCC(=O)ON1C(=O)CC(S(=O)(=O)O)C1=O` (centres unmarked) [SSO, sulfo-N-succinimidyl oleate], the EC50 is 0.31 ± 0.09 µM in the data set on HCV [3] (Huh7.5, 72 h); greater than 100 µM with hepatitis B virus (HBV); greater than 200 µM in [4]; greater than 66.7 µM in data set [11]; 79 µM in [12]; 200 µM in data set [13]. The “anti-HCV efficacy in combination with IFN-α” value in the data set on HCV [3] (SSO 1.0 μM + IFN-α 1.0 U/mL, HCV-infected Huh7.5 cells, 72 hrs, P < 0.05 vs IFN-α alone) is “enhanced anti-HCV efficacy”. In the data set on HCV [3] (SSO 1.0 μM + VX-950 0.1 μM, HCV-infected Huh7.5 cells, 72 hrs, P < 0.05 vs telaprevir alone), the “anti-HCV efficacy in combination with telaprevir (VX-950)” value is reported as “enhanced anti-HCV efficacy”. Further, the half-maximal cytotoxic concentration (CC50) was greater than 100 µM in data set [5]; 111 µM in data set [6] (CoxV-B1 test); greater than 200 µM in data set [6] (HSV-1 test); greater than 200 µM in data set [7]; greater than 200 µM in the data set with MDCK cells. Besides, the “inhibitory activity on hepatitis B virus, influenza virus, herpes simplex virus and Coxsackie virus” value in [8] was “no inhibitory activity”. In addition, in the data set on HCV [9], the “anti-HCV activity of SSO in cells transfected with CD36 plasmid” value is recorded as “decreased”. In the data set on HCV [9], the “anti-HCV activity of SSO in cells transfected with siRNA for CD36” value is “increased”. In addition, in the data set with HCV [10] (2 hrs treatment after infection, detected in 72 hrs, P > 0.05), the “HCV replication, treatment after infection” value is reported as “no inhibitory effect”. In addition, the “HCV replication, treatment before and during HCV infection” value in the data set with HCV [10] (2 hrs treatment, HCV RNA and proteins in 72 hrs, P < 0.01) is “strongly inhibit HCV replication”. The “replication of the HCV replicon in GS4.3 cells” value in data set [2] is recorded as “did not inhibit the replication”. Moreover, in the data set on HCV particle, the “HCV inhibitory activity, Group 1 (treated HCV stock, no ultracentrifugation)” value is listed as “showed HCV inhibitory activity”. The “infectivity of treated virus, Group 2 (after ultracentrifugation)” value in the data set on HCV particle (SSO 10 μM, ultracentrifuged, P > 0.05) was “infectivity equal to that of untreated control”. Besides, the “direct binding to SR-BI (BIAcore)” value on SR-BI was “no binding on SR-BI”. Besides, the “liver and kidney function: blood GOT, GPT, BUN and CRE” value in the data set with KM mice is on record as “abnormality was not detected”.

As to `COc1ccc2cc[n+](CCc3ccccc3)cc2c1O` [W-9], in the data set on HCV [3] (Huh7.5, 72 h), the EC50 amounted to 6.61 ± 3.18 µM. Also, in the data set with HCV [3], the “selective index (SI)” value is given as 20.
